Laboratory results: the NIST ThermoML archive (doi:10.1021/je030236t)
± gives the expanded uncertainty stated by the source.

What was measured:
[1] = molar enthalpy of vaporization or sublimation; details: 298.15 K; Liquid
[2] = Liquid

| Structure (SMILES) | molar enthalpy [1] [kcal/mol] | vapor or sublimation pressure ([2]; 298.15 K) [kPa] | vapor or sublimation pressure ([2]; 310 K) [kPa] | vapor or sublimation pressure ([2]; 320 K) [kPa] | vapor or sublimation pressure ([2]; 330 K) [kPa] | vapor or sublimation pressure ([2]; 340 K) [kPa] | vapor or sublimation pressure ([2]; 350 K) [kPa] | vapor or sublimation pressure ([2]; 360 K) [kPa] | vapor or sublimation pressure ([2]; 370 K) [kPa] | vapor or sublimation pressure ([2]; 380 K) [kPa] | vapor or sublimation pressure ([2]; 390 K) [kPa] | vapor or sublimation pressure ([2]; 400 K) [kPa] | vapor or sublimation pressure ([2]; 410 K) [kPa] | vapor or sublimation pressure ([2]; 420 K) [kPa] | vapor or sublimation pressure ([2]; 430 K) [kPa] | vapor or sublimation pressure ([2]; 440 K) [kPa] | vapor or sublimation pressure ([2]; 450 K) [kPa] | vapor or sublimation pressure ([2]; 460 K) [kPa] | vapor or sublimation pressure ([2]; 470 K) [kPa] | vapor or sublimation pressure ([2]; 480 K) [kPa] | other results |
| --- | --- | --- | --- | --- | --- | --- | --- | --- | --- | --- | --- | --- | --- | --- | --- | --- | --- | --- | --- | --- | --- |
| CCCCCCCCCCCCCCCCCCCCCCCCCCCCCCCCCCC [pentatriacontane] | 42.5 ± 2.2 | 1.22e-13 ± 3.7e-14 | 1.86e-12 ± 5.6e-13 | 1.53e-11 ± 4.6e-12 | 1.07e-10 ± 3.2e-11 | 6.52e-10 ± 2e-10 | 3.46e-09 ± 1e-09 | 1.63e-08 ± 4.9e-09 | 6.91e-08 ± 2.1e-08 | 2.64e-07 ± 7.9e-08 | 9.25e-07 ± 2.8e-07 | 2.97e-06 ± 8.9e-07 | 8.87e-06 ± 2.7e-06 | 2.46e-05 ± 7.4e-06 | 6.42e-05 ± 1.9e-05 | 0.000158 ± 4.7e-05 | 0.000367 ± 0.00011 | 0.000812 ± 0.00024 | 0.00171 ± 0.00051 | 0.00346 ± 0.001 | vapor or sublimation pressure ([2]; 490 K): 0.00673 ± 0.002 kPa; vapor or sublimation pressure ([2]; 500 K): 0.0126 ± 0.0038 kPa; vapor or sublimation pressure ([2]; 510 K): 0.0228 ± 0.0068 kPa; vapor or sublimation pressure ([2]; 520 K): 0.0399 ± 0.012 kPa; vapor or sublimation pressure ([2]; 530 K): 0.0678 ± 0.02 kPa; vapor or sublimation pressure ([2]; 540 K): 0.112 ± 0.034 kPa; vapor or sublimation pressure ([2]; 550 K): 0.181 ± 0.054 kPa; vapor or sublimation pressure ([2]; 560 K): 0.284 ± 0.085 kPa; vapor or sublimation pressure ([2]; 570 K): 0.436 ± 0.13 kPa; vapor or sublimation pressure ([2]; 580 K): 0.657 ± 0.2 kPa |
| CCCCCCCCCCCCCCCCCCCCCCCCCCCCCCCCCCCC [hexatriacontane] | 43.7 ± 2.25 | 4.51e-14 ± 1.4e-14 | 7.39e-13 ± 2.2e-13 | 6.41e-12 ± 1.9e-12 | 4.72e-11 ± 1.4e-11 | 3e-10 ± 9e-11 | 1.66e-09 ± 5e-10 | 8.16e-09 ± 2.5e-09 | 3.58e-08 ± 1.1e-08 | 1.42e-07 ± 4.3e-08 | 5.12e-07 ± 1.5e-07 | 1.7e-06 ± 5.1e-07 | 5.2e-06 ± 1.6e-06 | 1.48e-05 ± 4.4e-06 | 3.96e-05 ± 1.2e-05 | 9.96e-05 ± 3e-05 | 0.000237 ± 7.1e-05 | 0.000534 ± 0.00016 | 0.00115 ± 0.00035 | 0.00236 ± 0.00071 | vapor or sublimation pressure ([2]; 490 K): 0.00467 ± 0.0014 kPa; vapor or sublimation pressure ([2]; 500 K): 0.00888 ± 0.0027 kPa; vapor or sublimation pressure ([2]; 510 K): 0.0163 ± 0.0049 kPa; vapor or sublimation pressure ([2]; 520 K): 0.0289 ± 0.0087 kPa; vapor or sublimation pressure ([2]; 530 K): 0.0498 ± 0.015 kPa; vapor or sublimation pressure ([2]; 540 K): 0.0834 ± 0.025 kPa; vapor or sublimation pressure ([2]; 550 K): 0.136 ± 0.041 kPa; vapor or sublimation pressure ([2]; 560 K): 0.216 ± 0.065 kPa; vapor or sublimation pressure ([2]; 570 K): 0.336 ± 0.1 kPa; vapor or sublimation pressure ([2]; 580 K): 0.51 ± 0.15 kPa |
